Experimental data: US12486280B2, “CDK inhibitors and uses thereof” (California Institute of Technology, priority 2018, dated 2025)
In brackets after ≈: the same amount, converted by molar mass. Where two headings read alike, the source gives them in different places.

Assays:
[1] = biological target: CDK4 (Homo sapiens (Human), UniProt P11802); assay: Cdk4 and 6 Enzymatic Inhibition Assay (radiometric 33PanQinase, Ki determination); type: biochemical
Procedure, shortened: (§1)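 Compounds tested at ten concentrations spanning 2×10^−6 to 6×10^−11 M (final DMSO 1%). Kinase and substrate reacted with [γ-33P]-ATP in HEPES-NaOH pH 7.5 containing Mg2+/Mn2+, orthovanadate and DTT for 60 min at 30° C; incorporated 33Pi measured by microplate scintillation counting.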

[2] = biological target: CDK6 (Homo sapiens (Human), UniProt Q00534); assay: as above; type: biochemical
Sequence of CDK6 (Q00534 whole entry): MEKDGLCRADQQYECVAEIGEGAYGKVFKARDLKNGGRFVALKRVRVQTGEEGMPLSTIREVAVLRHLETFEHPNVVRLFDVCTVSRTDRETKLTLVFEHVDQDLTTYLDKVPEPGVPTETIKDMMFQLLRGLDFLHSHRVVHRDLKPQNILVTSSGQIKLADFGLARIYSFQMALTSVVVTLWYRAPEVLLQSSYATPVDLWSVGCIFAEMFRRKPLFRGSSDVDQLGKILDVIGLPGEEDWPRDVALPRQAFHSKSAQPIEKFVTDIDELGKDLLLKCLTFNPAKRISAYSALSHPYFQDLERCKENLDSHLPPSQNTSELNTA
Sequence of CDK6 (P24385 whole entry partner): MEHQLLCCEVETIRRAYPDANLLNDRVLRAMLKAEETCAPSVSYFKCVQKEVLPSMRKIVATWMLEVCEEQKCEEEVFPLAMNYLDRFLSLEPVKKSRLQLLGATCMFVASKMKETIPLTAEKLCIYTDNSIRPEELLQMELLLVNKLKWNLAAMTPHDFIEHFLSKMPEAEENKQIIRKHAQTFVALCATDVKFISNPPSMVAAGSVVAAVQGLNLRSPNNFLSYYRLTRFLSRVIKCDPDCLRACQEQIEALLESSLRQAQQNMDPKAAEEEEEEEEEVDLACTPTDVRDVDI
Procedure, shortened: as §1

[3] = system: drug-sensitive cell lines of Table 2 (EFM-19, MDA-MB-453, T-47D, ZR-75-1, NCI-H441, OVTOKO, NCI-H1838); assay: Cell Line Growth Retardation Assay, sensitive cohort; type: cell-based, human; conditions: for IC50: Homo sapiens, geometric mean over sensitive cohort, 6 days growth, read-out: AvgSensIC50; for Ther Window: average IC50 drug-resistant group divided by average IC50 drug-sensitive group
Procedure, shortened: (§2)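 Growth over 6 days of compound exposure (0.0032–10 μM, five-fold steps) was scored by imaging cell counts at days 0 and 6, comparing population doublings with vehicle. Per-line IC50s from dose-response fits were averaged geometrically per cohort; therapeutic window is resistant/sensitive ratio.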

[4] = system: drug-resistant cell lines of Table 2 (NCI-H1437, OV207, HCC1806, NCI-H2172); assay: Cell Line Growth Retardation Assay, resistant cohort; type: cell-based, human; conditions: Homo sapiens, […], geometric mean over resistant cohort; 6 days growth; read-out: AvgResIC50
Procedure, shortened: as §2

[5] = Compound Solubility Assay (kinetic solubility); type: physicochemical
Protocol: The relative kinetic solubility of each compound was determined at both low (1.2) and neutral (7.4) pH. Compounds were prepared at 10 mM stocks. […] Compounds were allowed to shake at room temperature for 24 hours in 50 mM phosphate buffer pH 7.4, or in SGF buffer pH 1.2 at 37° C. for 24 hours.

[6] = Caco-2 Assay (Papp A to B); conditions: human, Caco-2, pH 7.4
Protocol: The degree of bi-directional human intestinal permeability for compounds was estimated using a Caco-2 cell permeability assay. Caco-2 cells were seeded onto polyethylene membranes in 96-well plates. The growth medium was refreshed every 4 to 5 days until cells formed a confluent cell monolayer. HBSS with 10 mM HEPES at pH 7.4 was used as the transport buffer. Compounds were tested at 2 μM bi-directionally in duplicate. Digoxin, nadolol and metoprolol were included as standards. Digoxin was tested at 10 μM bi-directionally in duplicate, while nadolol and metoprolol were tested at 2 μM in the A to B direction in duplicate. The final DMSO concentration was adjusted to less than 1% for all experiments. The plate was incubated for 2 hours in a CO2 incubator at 37° C., with 5% CO2 at saturated humidity. After incubation, all wells were mixed with acetonitrile containing an internal standard, and the plate was centrifuged at 4,000 rpm for 10 minutes. 100 μL supernatant was collected from each well and diluted with 100 μL distilled water for LC/MS/MS analysis. Concentrations of test and control compounds in starting solution, donor solution, and receiver solution were quantified by LC/MS/MS, using peak area ratio of analyte/internal standard. The apparent permeability coefficient Papp (cm/s) was calculated using the equation: Papp=(dCr/dt)×Vr/(A×C0) Where dCr/dt is the cumulative concentration of compound in the receiver chamber as a function of time (μM/s); Vr is the solution volume in the receiver chamber (0.075 mL on the apical side, 0.25 mL on the basolateral side); A is the surface area for the transport, which is 0.0804 cm^2 for the area of the monolayer; C0 is the initial concentration in the donor chamber (μM).

[7] = system: CYP isozymes (IC50s averaged over the isozymes); assay: CYP Enzymatic Inhibition Assay in human liver microsomes
Protocol: Inhibition of various CYP isozymes was measured for each compound using a CYP enzyme inhibition assay in human liver microsomes (HLM). Compounds and standard inhibitors were prepared at a 100× working solutions. Substrates or PBS were added to the corresponding wells followed by addition of compounds, solvent or positive control working solution to corresponding wells. HLMs were added to the pre-warmed (37° C.) plate and mixed with NADPH cofactor for 10 minutes at 37° C. The reaction was terminated by adding 400 μL cold stop solution (200 ng/mL Tolbutamide and 200 ng/mL Labetalol in ACN). The plate was centrifuged at 4,000 rpm for 20 minutes, and supernatant was transferred to 100 μL HPLC water followed by LC/MS/MS analysis.

[8] = Measurement of Compound Metabolic Stability in hepatocytes
Protocol: The metabolic stability of compounds was determined in hepatocytes from mice and rats. Compounds were diluted to 5 μM in Williams' Medium E from 10 mM stock solutions. 10 μL of each compound was aliquoted into a well of a 96-well plate and reactions were started by aliquoting 40 μL of a 625,000 cells/mL suspension into each well. The plate was incubated at 37° C. with 5% CO2. At each corresponding time point, the reaction was stopped by quenching with ACN containing internal standards (IS) at a 1:3. Plates were shaken at 500 rpm for 10 min, and then centrifuged at 3,220×g for 20 minutes. Supernatants were transferred to another 96-well plate containing a dilution solution. Supernatants were analyzed by LC/MS/MS. Compound half-life was estimated using the following equation:

[9] = biological target: hERG potassium channels (Homo sapiens (Human), UniProt Q12809); assay: hERG Inhibition Assay (QPatch automated patch clamp, CHO cells); conditions: percent of control current
Sequence of hERG potassium channels (Q12809 whole entry): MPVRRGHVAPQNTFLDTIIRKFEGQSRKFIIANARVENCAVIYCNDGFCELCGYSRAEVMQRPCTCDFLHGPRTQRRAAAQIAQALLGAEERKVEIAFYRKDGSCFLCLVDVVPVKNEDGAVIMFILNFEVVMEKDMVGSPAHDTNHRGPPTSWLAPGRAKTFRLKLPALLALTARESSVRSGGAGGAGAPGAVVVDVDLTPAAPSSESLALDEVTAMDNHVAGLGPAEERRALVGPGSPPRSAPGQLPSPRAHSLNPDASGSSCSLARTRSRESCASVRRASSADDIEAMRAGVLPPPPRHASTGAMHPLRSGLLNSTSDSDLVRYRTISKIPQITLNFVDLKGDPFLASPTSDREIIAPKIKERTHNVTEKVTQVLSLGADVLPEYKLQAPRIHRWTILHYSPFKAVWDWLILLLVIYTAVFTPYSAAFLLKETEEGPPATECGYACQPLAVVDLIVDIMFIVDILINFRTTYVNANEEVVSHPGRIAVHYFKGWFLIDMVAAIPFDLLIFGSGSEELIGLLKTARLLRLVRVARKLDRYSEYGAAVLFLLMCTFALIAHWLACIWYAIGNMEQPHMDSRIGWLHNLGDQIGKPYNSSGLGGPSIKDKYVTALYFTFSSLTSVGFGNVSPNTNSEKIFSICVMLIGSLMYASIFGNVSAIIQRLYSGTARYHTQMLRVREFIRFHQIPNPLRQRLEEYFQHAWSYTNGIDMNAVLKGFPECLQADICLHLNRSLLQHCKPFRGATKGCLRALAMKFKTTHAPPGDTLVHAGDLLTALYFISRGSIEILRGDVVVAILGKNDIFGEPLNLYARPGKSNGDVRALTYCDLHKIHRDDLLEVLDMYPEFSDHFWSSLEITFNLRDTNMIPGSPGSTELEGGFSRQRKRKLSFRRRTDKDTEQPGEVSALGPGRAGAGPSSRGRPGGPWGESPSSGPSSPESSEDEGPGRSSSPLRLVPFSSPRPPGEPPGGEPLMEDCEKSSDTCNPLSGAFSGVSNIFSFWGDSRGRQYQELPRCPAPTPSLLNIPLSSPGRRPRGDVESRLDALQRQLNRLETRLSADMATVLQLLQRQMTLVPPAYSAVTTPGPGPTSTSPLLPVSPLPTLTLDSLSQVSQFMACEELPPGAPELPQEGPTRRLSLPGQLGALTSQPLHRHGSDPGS
Protocol: Effects of compounds on hERG potassium channel conductance was assessed using the automated patch clamp method QPatch^HTX. Compounds were prepared at 10 mM stocks. CHO cells stably expressing hERG potassium channels were used for this assay. Cells were cultured in a humidified and air-controlled 5% CO2) incubator at 37° C. Compound stocks and the positive control Amitriptyline were dissolved in 100% DMSO to make various solution concentrations. These solutions were further diluted into extracellular solution to achieve final concentrations for testing. The final DMSO concentration in extracellular solution was 0.30%. The hERG QPatch^HTX assay was conducted at room temperature.
The following voltage command protocol was used: • From the holding potential of −80 mV, the voltage was first stepped to −50 mV for 80 ms for leak subtraction, and then stepped to +20 mV for 4,800 ms to open hERG channels. • After which, the voltage was stepped back down to −50 mV for 5,000 ms, causing a “rebound” or tail current, which was measured and collected for data analysis. • Finally, the voltage was stepped back to the holding potential of −80 mV for 3,100 ms.
For each experiment, three additions of 5 μL of the vehicle were applied, followed by 30 runs of the voltage command protocol for a baseline period. Then, the ascending doses of each compound were added with three repetitions (5 μL of compound each time).

[10] = 50 mM phosphate buffer, pH 7.4, aqueous buffer, kinetic from dmso stock, read-out: KS7
[11] = simulated gastric fluid, kinetic from dmso stock, kinetic solubility, SGF buffer pH 1.2, 37° C., 24 hours, read-out: KS1

Sequence of CDK4 (P11802 whole entry): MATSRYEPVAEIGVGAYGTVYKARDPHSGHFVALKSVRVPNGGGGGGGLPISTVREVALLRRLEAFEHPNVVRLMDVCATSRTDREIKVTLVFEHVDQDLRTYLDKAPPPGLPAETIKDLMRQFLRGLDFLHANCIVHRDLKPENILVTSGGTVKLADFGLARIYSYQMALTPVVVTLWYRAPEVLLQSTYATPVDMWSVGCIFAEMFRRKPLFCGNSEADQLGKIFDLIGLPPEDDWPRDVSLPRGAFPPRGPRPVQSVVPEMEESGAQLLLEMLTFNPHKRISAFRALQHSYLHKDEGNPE
Sequence of CDK4 (P24385 whole entry partner): as the sequence (P24385 whole entry partner) above

| Ki [1] [nM] | Ki [2] [nM] | IC50 [3] [nM] | IC50 [4] [nM] | solubility kinetic at 24 h [5, 10] [µM] | solubility kinetic at 24 h [5, 11] [µM] | Papp A→B at 2 h, 2 μM [6] [×10⁻⁶ cm/s] | IC50 at 10 min [7] [µM] | half-life at 1 μM [8] [min] | solubility kinetic at 24 h ([5]; kinetic solubility, SGF buffer pH 1.2, 37° C., 24 hours, read-out: KS1) [µM] | Structure (SMILES) | Ther Window [3] | hERG [9] [%] |
| --- | --- | --- | --- | --- | --- | --- | --- | --- | --- | --- | --- | --- |
| 1.76 | 11.3 | 170 | 970 | 128 (≈ 76.1 µg/mL) | 200 (≈ 119 µg/mL) | 2.35 | 30.9 | 4.24 |  | CC(=O)N(C)CC[C@]1(C)CN(Cc2ccc(Nc3ncc(F)c(-c4cc(F)c5nc(C)n(C(C)C)c5c4)n3)nc2)CCO1 [Compound A8, (R)—N-(2-(4-((6-((5-fluoro-4-(4-fluoro-1-isopropyl-2-methyl-1H-benzo[d]imidazol-6-yl)pyrimidin-2-yl)amino)pyridin-3-yl)methyl)-2-methylmorpholin-2-yl)ethyl)-N-methylacetamide] | 5.64 | 11.87 |
| 1.47 | 7.23 | 220 | 840 | 40.5 (≈ 22.2 µg/mL) | 200 (≈ 110 µg/mL) | 0.17 | 80.2 | 38.2 |  | Cc1nc2c(F)cc(-c3nc(Nc4ccc(CN5CCO[C@]6(CCN(C)C6)C5)cn4)ncc3F)cc2n1C(C)C [Compound A38] | 3.81 | 10.65 |
| 1.73 | 8.63 | 130 | 770 | 140 (≈ 81.2 µg/mL) | 200 (≈ 116 µg/mL) | 0.03 | 51.5 | 89.4 |  | Cc1nc2c(F)cc(-c3nc(Nc4ccc(CN5CCO[C@](C)(C[C@@H](C)N(C)C)C5)cn4)ncc3F)cc2n1C(C)C [Compound A26] | 6.10 | 39.08 |
| 0.78 | 5.32 | 70 | 730 | 1.13 (≈ 0.608 µg/mL) | 200 (≈ 108 µg/mL) | 3.25 | 35 | 17.5 |  | Cc1nc2c(F)cc(-c3nc(Nc4ccc(CN5CCO[C@@](C)(CCO)C5)cn4)ncc3F)cc2n1C(C)C [Compound A50, (S)-2-(4-((6-((5-fluoro-4-(4-fluoro-1-isopropyl-2-methyl-1H-benzo[d]imidazol-6-yl)pyrimidin-2-yl)amino)pyridin-3-yl)methyl)-2-methylmorpholin-2-yl)ethan-1-ol] | 9.87 | 18.96 |
| 0.46 | 2.6 | 70 | 390 | 15.8 | 200 | 0.09 | 94 | 55.2 |  | Cc1nc2c(F)cc(-c3nc(Nc4ccc(CN5CCO[C@@](C)(C[C@@H](C)N(C)C)C5)cn4)ncc3F)cc2n1C(C)C [Compound A28, N-(5-(((S)-2-((R)-2-(dimethylamino)propyl)-2-methylmorpholino)methyl)pyridin-2-yl)-5-fluoro-4-(4-fluoro-1-isopropyl-2-methyl-1H-benzo[d]imidazol-6-yl)pyrimidin-2-amine methanesulfonate] | 5.23 | 6.78 |
| 2.04 | 7.39 | 70 | 1000 | 163 (≈ 96.6 µg/mL) | 200 (≈ 119 µg/mL) | 0.05 | 37.2 | 130 |  | CCN(CC)CCC1(C)CN(Cc2ccc(Nc3ncc(F)c(-c4cc(F)c5nc(C)n(C(C)C)c5c4)n3)nc2)CCO1 (stereo in doubt) [Compound A3, (S)—N-(5-((2-(2-(diethylamino)ethyl)-2-methylmorpholino)methyl)pyridin-2-yl)-5-fluoro-4-(4-fluoro-1-isopropyl-2-methyl-1H-benzo[d]imidazol-6-yl)pyrimidin-2-amine] | 13.77 | 26.68 |
| 3.42 | 20.1 | 150 | 1000 | 2.02 (≈ 1.2 µg/mL) | 200 (≈ 119 µg/mL) | 3.94 | 18.7 | 4.73 |  | COC(=O)N1CC[C@@]2(CN(Cc3ccc(Nc4ncc(F)c(-c5cc(F)c6nc(C)n(C(C)C)c6c5)n4)nc3)CCO2)C1 [Compound A33] | 6.51 | 18.72 |
| 2.18 | 12.8 | 110 | 860 | 1 (≈ 0.613 µg/mL) |  | 2.62 | 21.6 | 13.1 | 200.00 (≈ 123 µg/mL) | Cc1nc2c(F)cc(-c3nc(Nc4ccc(CN5CCO[C@](C)(CCN6CC(F)(F)C6)C5)cn4)ncc3F)cc2n1C(C)C [Compound A12, (R)—N-(5-((2-(2-(3,3-difluoroazetidin-1-yl)ethyl)-2-methylmorpholino)methyl)pyridin-2-yl)-5-fluoro-4-(4-fluoro-1-isopropyl-2-methyl-1H-benzo[d]imidazol-6-yl)pyrimidin-2-amine] | 8.17 | 19.54 |
| 0.7 | 3.04 | 90 | 960 | 6.3 (≈ 3.19 µg/mL) | 200 (≈ 101 µg/mL) | 0.01 | 64.2 | 81.2 |  | Cc1nc2c(F)cc(-c3nc(Nc4ccc(CN5CCNC(C)(C)C5)cn4)ncc3F)cc2n1C(C)C [Compound A44, N-(5-((3,3-dimethylpiperazin-1-yl)methyl)pyridin-2-yl)-5-fluoro-4-(4-fluoro-1-isopropyl-2-methyl-1H-benzo[d]imidazol-6-yl)pyrimidin-2-amine] | 10.25 | 10.84 |
| 1.71 | 10.2 | 140 | 960 | 3.09 (≈ 1.89 µg/mL) | 200 (≈ 123 µg/mL) | 0.85 | 12.8 | 5.65 |  | Cc1nc2c(F)cc(-c3nc(Nc4ccc(CN5CCO[C@@]6(CCN(S(C)(=O)=O)C6)C5)cn4)ncc3F)cc2n1C(C)C [Compound A31, (S)-5-fluoro-4-(4-fluoro-1-isopropyl-2-methyl-1H-benzo[d]imidazol-6-yl)-N-(5-((2-(methylsulfonyl)-6-oxa-2,9-diazaspiro[4.5]decan-9-yl)methyl)pyridin-2-yl)pyrimidin-2-amine] | 6.72 | 21.67 |
| 1.37 | 7.07 | 190 | 970 | 139 (≈ 84.2 µg/mL) | 200 (≈ 121 µg/mL) | 0.91 | 29 | 16.8 |  | Cc1nc2c(F)cc(-c3nc(Nc4ccc(CN5CCO[C@](C)(CCN6CCOCC6)C5)cn4)ncc3F)cc2n1C(C)C [Compound A19, (R)-5-fluoro-4-(4-fluoro-1-isopropyl-2-methyl-1H-benzo[d]imidazol-6-yl)-N-(5-((2-methyl-2-(2-morpholinoethyl)morpholino)methyl)pyridin-2-yl)pyrimidin-2-amine] | 5.12 | 18.14 |
| 3.07 | 17.4 | 160 | 1000 | 1.6 (≈ 0.98 µg/mL) | 200 (≈ 123 µg/mL) | 1.08 | 31.5 | 4.24 |  | Cc1nc2c(F)cc(-c3nc(Nc4ccc(CN5CCO[C@]6(CCN(S(C)(=O)=O)C6)C5)cn4)ncc3F)cc2n1C(C)C [Compound A32] | 6.24 | 14.35 |
| 1.21 | 6.57 | 80 | 900 | 107 (≈ 61.9 µg/mL) | 200 (≈ 116 µg/mL) | 0.06 | 25.8 | 71.2 |  | Cc1nc2c(F)cc(-c3nc(Nc4ccc(CN5CCO[C@](C)(C[C@H](C)N(C)C)C5)cn4)ncc3F)cc2n1C(C)C [Compound A27] | 11.50 | 24.78 |
